Assay results reported in PMC5761851, “Application of a phenotypic drug discovery strategy to identify biological and chemical starting points for inhibition of TSLP production in lung epithelial cells” (PLoS ONE, 2018).
Values joined by “and” are separate entries in the source; they are usually repeats but may differ in a detail not shown here. Equal values may be shown once. Read-outs that look alike come from different tables or passages of the source.

Columns and labels:
[1] = test system: 125 representative kinases; experiment: 125 kinase selectivity panel (overall); assay type: biochemical; conditions: 10 μM
Protocol: Kinase selectivity was evaluated at Eurofins Pharma Discovery Services using a selection of 125 representative kinases tested at a concentration of 10 μM in duplicate (S3 Table). IC50 values for selected activities were further characterized at 9 duplicate concentrations. DNA-PK activity was determined at the SelectScreen® Biochemical kinase Profiling Service of Thermo Fisher Scientific.

[2] = test system: TSLP mRNA levels in NHBE cells; experiment: TSLP mRNA real-time PCR (qPCR) in NHBE cells; assay type: cell-based, human; parameters: TSLP mRNA upregulation (% versus control) / % Inhibition of mRNA: dose or concentration left out as unconfirmed; conditions: for % Inhibition of mRNA at [4 μM] ± SD: NHBE donor #1, 6 h stimulation; for % Inhibition of mRNA: individual values, donor #1
[3] = test system: Production of TNFα in THP-1 cells; experiment: p38-dependent TNF production in THP-1 cells; assay type: cell-based
A3 = biological target: T1, A3 (Homo sapiens, UniProt P0DMS8); experiment: BioPrint panel: A3 (h) (agonist); assay type: binding; conditions: 1 micromolar, read-out: percentage of inhibition of activity
T1 construct: purchased Eurofins Pharma Discovery Services (KinaseProfiler; Cerep BioPrint panel)
T1 sequence (P0DMS8 whole entry): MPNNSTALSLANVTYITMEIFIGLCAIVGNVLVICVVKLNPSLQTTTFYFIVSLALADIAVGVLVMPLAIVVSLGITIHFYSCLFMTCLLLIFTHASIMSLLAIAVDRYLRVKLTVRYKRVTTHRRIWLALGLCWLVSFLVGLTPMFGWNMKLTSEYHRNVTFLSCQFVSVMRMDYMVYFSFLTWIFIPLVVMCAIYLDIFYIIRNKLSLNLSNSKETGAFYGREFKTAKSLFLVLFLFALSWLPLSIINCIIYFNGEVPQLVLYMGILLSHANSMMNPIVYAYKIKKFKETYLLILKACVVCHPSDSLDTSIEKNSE
From the text: (§1) Supplement pone.0189247.s004.xlsx, sheet "Bioprint Selectivity Panel" | column: %

CCK2 (CCKB) = biological target: T2, CCK2 (CCKB) (Homo sapiens, UniProt P32239); experiment: BioPrint panel: CCK2 (CCKB) (h) (agonist); assay type: binding; conditions: 1 micromolar, read-out: percentage of inhibition of activity
T2 construct: purchased Eurofins Pharma Discovery Services (KinaseProfiler; Cerep BioPrint panel)
From the text: as §1

ACE-2 = biological target: T3, ACE-2 (Homo sapiens, UniProt Q9BYF1); experiment: BioPrint panel: ACE-2 (h); assay type: biochemical; conditions: 1 micromolar
T3 construct: purchased Eurofins Pharma Discovery Services (KinaseProfiler; Cerep BioPrint panel)
From the text: as §1

ATPase (Na+/K+) = experiment: BioPrint panel: ATPase (Na+/K+); assay type: biochemical; conditions: 1 micromolar
From the text: as §1

[4] = biological target: T4, norepinephrine transporter (Homo sapiens, UniProt P23975); experiment: BioPrint panel: norepinephrine transporter (h) (antagonist); assay type: binding; conditions: 1 micromolar, read-out: percentage of inhibition of activity
T4 construct: purchased Eurofins Pharma Discovery Services (KinaseProfiler; Cerep BioPrint panel)
T4 sequence (P23975 whole entry): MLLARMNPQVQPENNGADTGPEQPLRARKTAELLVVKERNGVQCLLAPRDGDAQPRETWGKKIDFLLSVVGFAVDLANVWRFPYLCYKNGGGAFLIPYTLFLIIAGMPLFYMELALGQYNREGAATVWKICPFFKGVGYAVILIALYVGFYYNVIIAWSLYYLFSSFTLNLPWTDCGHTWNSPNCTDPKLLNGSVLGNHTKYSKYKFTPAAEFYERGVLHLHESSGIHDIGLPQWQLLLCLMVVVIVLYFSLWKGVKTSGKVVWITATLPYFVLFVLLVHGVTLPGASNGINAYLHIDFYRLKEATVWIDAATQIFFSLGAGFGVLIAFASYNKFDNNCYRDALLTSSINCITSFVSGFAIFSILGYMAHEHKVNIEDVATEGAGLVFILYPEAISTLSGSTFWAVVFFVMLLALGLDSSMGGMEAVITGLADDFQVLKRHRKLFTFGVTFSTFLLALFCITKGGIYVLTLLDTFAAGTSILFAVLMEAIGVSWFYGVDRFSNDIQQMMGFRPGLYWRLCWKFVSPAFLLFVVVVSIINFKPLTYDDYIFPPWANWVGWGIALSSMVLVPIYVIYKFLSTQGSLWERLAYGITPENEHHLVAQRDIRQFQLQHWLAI
From the text: as §1

MCH1 = biological target: T5, MCH1 (Homo sapiens, UniProt Q99705); experiment: BioPrint panel: MCH1 (h) (agonist); assay type: binding; conditions: 1 micromolar, read-out: percentage of inhibition of activity
T5 construct: purchased Eurofins Pharma Discovery Services (KinaseProfiler; Cerep BioPrint panel)
T5 sequence (Q99705 whole entry): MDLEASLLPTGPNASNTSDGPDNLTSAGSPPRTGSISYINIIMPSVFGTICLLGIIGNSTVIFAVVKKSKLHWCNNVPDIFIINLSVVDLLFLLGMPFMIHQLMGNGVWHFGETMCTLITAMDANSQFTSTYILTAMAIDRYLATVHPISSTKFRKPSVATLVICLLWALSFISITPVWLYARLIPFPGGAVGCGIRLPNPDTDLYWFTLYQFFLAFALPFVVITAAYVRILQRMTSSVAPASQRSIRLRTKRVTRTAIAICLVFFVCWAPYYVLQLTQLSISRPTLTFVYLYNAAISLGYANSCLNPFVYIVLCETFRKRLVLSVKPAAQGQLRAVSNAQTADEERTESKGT
From the text: as §1

TNF-alpha = experiment: BioPrint panel: TNF-alpha (h) (agonist); assay type: binding, human; conditions: 1 micromolar
From the text: as §1

[5] = test system: human primary cell culture and co-culture systems; experiment: BioMAP Diversity PLUS phenotypic profiling; assay type: cell-based
From the text: The concept of the BioMAP® Diversity PLUS™ Platform™ (DiscoverX) has been previously described. The platform is comprised of 12 specific combinations of human primary cell culture and co-culture systems stimulated with a range of physiological and disease relevant stimuli (S2 Table). The resulting activities define a bioactivity fingerprint that was used to search for similar patterns of biological responses across the BioMAP® reference database of >3,000 compounds, biologics, approved drugs and experimental agents. Compound 4 was tested at 0.111 μM, 0.333 μM, 1 μM and 3 μM concentrations.

V2 = biological target: T6, V2 (Homo sapiens, UniProt P30518); experiment: BioPrint panel: V2 (h) (agonist); assay type: binding; conditions: 1 micromolar, read-out: percentage of inhibition of activity
T6 construct: purchased Eurofins Pharma Discovery Services (KinaseProfiler; Cerep BioPrint panel)
T6 sequence (P30518 whole entry): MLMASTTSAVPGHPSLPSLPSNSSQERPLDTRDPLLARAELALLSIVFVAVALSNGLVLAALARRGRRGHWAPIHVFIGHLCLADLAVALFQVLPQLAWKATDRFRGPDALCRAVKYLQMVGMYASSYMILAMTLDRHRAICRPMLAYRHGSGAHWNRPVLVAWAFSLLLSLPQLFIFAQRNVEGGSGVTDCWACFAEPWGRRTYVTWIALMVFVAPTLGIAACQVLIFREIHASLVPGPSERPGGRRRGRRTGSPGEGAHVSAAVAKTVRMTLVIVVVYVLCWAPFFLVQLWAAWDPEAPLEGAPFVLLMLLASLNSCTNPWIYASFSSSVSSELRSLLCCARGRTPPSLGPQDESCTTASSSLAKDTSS
From the text: as §1

neutral endopeptidase = biological target: T7, neutral endopeptidase (Homo sapiens, UniProt P08473); experiment: BioPrint panel: neutral endopeptidase (h); assay type: biochemical; conditions: 1 micromolar, read-out: percentage of inhibition of activity
T7 construct: purchased Eurofins Pharma Discovery Services (KinaseProfiler; Cerep BioPrint panel)
T7 sequence (P08473 whole entry): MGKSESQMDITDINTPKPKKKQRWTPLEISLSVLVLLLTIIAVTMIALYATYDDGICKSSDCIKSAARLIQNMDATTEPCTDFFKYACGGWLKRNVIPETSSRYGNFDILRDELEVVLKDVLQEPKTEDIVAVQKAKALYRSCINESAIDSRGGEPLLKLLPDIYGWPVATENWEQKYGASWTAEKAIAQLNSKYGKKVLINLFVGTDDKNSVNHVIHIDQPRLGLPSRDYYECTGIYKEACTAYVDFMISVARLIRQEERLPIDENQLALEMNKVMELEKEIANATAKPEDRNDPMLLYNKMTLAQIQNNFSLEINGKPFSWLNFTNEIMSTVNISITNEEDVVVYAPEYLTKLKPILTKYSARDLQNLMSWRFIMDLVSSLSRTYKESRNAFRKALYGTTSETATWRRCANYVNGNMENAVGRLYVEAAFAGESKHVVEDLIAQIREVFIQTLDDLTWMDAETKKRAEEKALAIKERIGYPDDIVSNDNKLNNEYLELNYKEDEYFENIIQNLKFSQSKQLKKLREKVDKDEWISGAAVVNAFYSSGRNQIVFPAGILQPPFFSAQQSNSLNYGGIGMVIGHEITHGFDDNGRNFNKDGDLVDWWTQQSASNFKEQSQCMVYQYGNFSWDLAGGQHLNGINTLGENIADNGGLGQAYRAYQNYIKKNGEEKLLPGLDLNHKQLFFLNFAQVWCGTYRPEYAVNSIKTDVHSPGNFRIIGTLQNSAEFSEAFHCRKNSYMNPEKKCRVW
From the text: as §1

NMDA = experiment: BioPrint panel: NMDA (antagonist); assay type: binding; conditions: 1 micromolar
From the text: as §1

beta 3 = biological target: T8, beta 3 (Homo sapiens, UniProt P13945); experiment: BioPrint panel: beta 3 (h) (antagonist); assay type: binding; conditions: 1 micromolar, read-out: percentage of inhibition of activity
T8 construct: purchased Eurofins Pharma Discovery Services (KinaseProfiler; Cerep BioPrint panel)
T8 sequence (P13945 whole entry): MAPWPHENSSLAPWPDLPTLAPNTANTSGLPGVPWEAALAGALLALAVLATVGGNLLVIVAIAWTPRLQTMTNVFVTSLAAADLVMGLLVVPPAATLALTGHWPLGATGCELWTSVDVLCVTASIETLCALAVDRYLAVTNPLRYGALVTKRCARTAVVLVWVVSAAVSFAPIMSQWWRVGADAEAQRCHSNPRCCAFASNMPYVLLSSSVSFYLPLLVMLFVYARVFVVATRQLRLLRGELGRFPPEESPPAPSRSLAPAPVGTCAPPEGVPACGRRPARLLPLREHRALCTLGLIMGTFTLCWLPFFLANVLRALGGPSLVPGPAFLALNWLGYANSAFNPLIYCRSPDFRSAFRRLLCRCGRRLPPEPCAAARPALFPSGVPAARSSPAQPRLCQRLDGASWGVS
From the text: as §1

[6] = test system: Ca2+ channel (L, diltiazem site); experiment: BioPrint panel: Ca2+ channel (L, diltiazem site)(antagonist); assay type: binding; conditions: 1 micromolar
From the text: as §1

M3 = biological target: T9, M3 (Homo sapiens, UniProt P20309); experiment: BioPrint panel: M3 (h) (antagonist); assay type: binding; conditions: 1 micromolar, read-out: percentage of inhibition of activity
T9 construct: purchased Eurofins Pharma Discovery Services (KinaseProfiler; Cerep BioPrint panel)
T9 sequence (P20309 whole entry): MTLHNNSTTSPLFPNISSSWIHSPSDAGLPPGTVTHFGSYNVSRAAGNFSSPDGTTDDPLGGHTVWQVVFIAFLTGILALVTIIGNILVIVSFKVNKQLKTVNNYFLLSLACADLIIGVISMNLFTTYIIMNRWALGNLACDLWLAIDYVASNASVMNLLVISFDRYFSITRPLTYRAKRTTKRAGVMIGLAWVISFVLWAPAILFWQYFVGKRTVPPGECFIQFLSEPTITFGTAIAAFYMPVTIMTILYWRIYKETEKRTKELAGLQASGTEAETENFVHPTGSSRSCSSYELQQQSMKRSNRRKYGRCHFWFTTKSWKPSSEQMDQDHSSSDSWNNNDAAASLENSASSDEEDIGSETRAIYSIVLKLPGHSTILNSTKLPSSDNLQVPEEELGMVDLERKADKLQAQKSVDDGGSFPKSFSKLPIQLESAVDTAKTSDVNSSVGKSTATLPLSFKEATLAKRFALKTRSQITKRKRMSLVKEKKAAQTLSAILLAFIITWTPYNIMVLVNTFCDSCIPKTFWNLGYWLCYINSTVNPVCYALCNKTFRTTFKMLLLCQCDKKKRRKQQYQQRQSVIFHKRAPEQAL
From the text: as §1

HIV-1 protease = experiment: BioPrint panel: HIV-1 protease; assay type: biochemical; conditions: 1 micromolar
From the text: as §1

V1a = biological target: T10, V1a (Homo sapiens, UniProt P37288); experiment: BioPrint panel: V1a (h) (agonist); assay type: binding; conditions: 1 micromolar, read-out: percentage of inhibition of activity
T10 construct: purchased Eurofins Pharma Discovery Services (KinaseProfiler; Cerep BioPrint panel)
T10 sequence (P37288 whole entry): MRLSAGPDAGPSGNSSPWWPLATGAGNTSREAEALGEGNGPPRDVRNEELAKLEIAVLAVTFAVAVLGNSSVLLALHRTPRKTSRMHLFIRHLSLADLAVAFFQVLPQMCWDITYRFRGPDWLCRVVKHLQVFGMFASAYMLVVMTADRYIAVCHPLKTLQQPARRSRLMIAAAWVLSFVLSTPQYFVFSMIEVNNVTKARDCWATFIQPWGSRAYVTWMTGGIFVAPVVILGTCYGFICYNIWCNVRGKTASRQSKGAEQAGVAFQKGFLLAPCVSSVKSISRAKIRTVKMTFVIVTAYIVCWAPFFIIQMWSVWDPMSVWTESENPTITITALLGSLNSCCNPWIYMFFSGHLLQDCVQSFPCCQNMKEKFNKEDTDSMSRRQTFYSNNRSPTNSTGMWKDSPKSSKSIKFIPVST
From the text: as §1

MT1 (ML1A) = biological target: T11, MT1 (ML1A) (Homo sapiens, UniProt P48039); experiment: BioPrint panel: MT1 (ML1A) (h) (agonist); assay type: binding; conditions: 1 micromolar, read-out: percentage of inhibition of activity
T11 construct: purchased Eurofins Pharma Discovery Services (KinaseProfiler; Cerep BioPrint panel)
T11 sequence (P48039 whole entry): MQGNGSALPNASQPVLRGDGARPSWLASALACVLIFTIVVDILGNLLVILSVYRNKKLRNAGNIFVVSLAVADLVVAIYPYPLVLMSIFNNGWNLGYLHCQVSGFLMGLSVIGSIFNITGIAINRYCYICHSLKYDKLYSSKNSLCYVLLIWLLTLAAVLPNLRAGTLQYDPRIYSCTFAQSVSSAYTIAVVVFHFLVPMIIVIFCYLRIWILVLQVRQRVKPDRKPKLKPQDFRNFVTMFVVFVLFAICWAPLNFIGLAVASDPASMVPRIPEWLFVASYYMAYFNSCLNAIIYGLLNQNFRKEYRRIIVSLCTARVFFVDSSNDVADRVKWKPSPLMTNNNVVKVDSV
From the text: as §1

ERK2 (P42mapk) = biological target: T12, ERK2 (P42mapk) (Homo sapiens, UniProt P28482); experiment: BioPrint panel: ERK2 (h) (P42mapk); assay type: biochemical; conditions: 1 micromolar, read-out: percentage of inhibition of activity
T12 construct: purchased Eurofins Pharma Discovery Services (KinaseProfiler; Cerep BioPrint panel)
T12 sequence (P28482 whole entry): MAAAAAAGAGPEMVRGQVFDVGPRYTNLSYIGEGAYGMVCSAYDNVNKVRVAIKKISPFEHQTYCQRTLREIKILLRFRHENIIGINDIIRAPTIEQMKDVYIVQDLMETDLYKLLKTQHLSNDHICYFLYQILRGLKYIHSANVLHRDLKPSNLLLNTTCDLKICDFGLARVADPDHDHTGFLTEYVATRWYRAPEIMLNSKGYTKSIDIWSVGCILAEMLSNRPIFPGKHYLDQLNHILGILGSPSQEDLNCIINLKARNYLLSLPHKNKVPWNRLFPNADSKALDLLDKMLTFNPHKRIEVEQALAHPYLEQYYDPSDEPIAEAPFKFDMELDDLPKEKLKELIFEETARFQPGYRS
From the text: as §1

CaMK2alpha = biological target: T13, CaMK2alpha (Homo sapiens, UniProt Q9UQM7); experiment: BioPrint panel: CaMK2alpha (h); assay type: biochemical; conditions: 1 micromolar, read-out: percentage of inhibition of activity
T13 construct: purchased Eurofins Pharma Discovery Services (KinaseProfiler; Cerep BioPrint panel)
From the text: as §1

PDE5 = biological target: T14, PDE5 (Homo sapiens, UniProt O76074); experiment: BioPrint panel: PDE5; assay type: biochemical
T14 construct: Eurofins Pharma Discovery Services (contract assay service)
Protocol: General selectivity profiling was performed at Eurofins Pharma Discovery Services using the BioPrint® panel and reference database. The panel included 104 binding assays (non-peptide, peptide and nuclear receptors, ion channels and amine transporters) and 41 cell based and enzyme assays (including 10 kinases, 9 proteases and 5 phosphodiesterases) (S4 Table). More than 70% were human targets. Compound 4 was tested at a concentration of 1 μM in duplicate (10 μM for P-gp and CYP enzymes). The resulting bioactivity fingerprint was compared with a database of >2,500 BioPrint marketed drugs and reference compounds. IC50 values for selected activities were further characterized at 8 concentrations in duplicate.

caspase-3 = biological target: T15, caspase-3 (Homo sapiens, UniProt P42574); experiment: BioPrint panel: caspase-3 (h); assay type: biochemical; conditions: 1 micromolar, read-out: percentage of inhibition of activity
T15 construct: purchased Eurofins Pharma Discovery Services (KinaseProfiler; Cerep BioPrint panel)
T15 sequence (P42574 29-175 limits assumed): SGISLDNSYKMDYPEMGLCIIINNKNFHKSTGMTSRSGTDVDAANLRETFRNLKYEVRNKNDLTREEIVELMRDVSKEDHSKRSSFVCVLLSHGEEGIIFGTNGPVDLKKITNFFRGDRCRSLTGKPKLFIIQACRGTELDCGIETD
T15 sequence (P42574 176-277 limits assumed): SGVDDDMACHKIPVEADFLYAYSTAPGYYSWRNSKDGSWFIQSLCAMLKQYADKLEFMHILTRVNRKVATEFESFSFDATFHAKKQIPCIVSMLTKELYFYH
From the text: as §1

[7] = Homo sapiens, THP-1, geometric mean, read-out: Activity in reference cell based assay (IC50, μM) (95% CI) Production of TNFα in THP-1 cells
[8] = Homo sapiens, THP-1, individual values, read-out: Cellular activity (IC50, mM) TNFa production in THP-1

CC(C)(C)N1CCC(c2cc(-c3ccc(F)cc3Cl)c3cc[n+]([O-])c(-c4c(Cl)cccc4Cl)c3n2)CC1 [compound 2]
inhibition in the rest of the panel [1]: less than 50% | % Inhibition of mRNA at [4 μM] ± SD [2]: 79.69 ± 4.76% | % Inhibition of mRNA [2]: 83.056% and 76.316% | IC50 [3, 7]: 0.0004 µM | IC50 [3, 8]: 0.00045 µM

Cc1ccc(C(=O)NCC2CC2)cc1-c1ccc2c(c1)NC(=O)C21CCCC1 [compound 3]
inhibition in the rest of the panel [1]: less than 50% | % Inhibition of mRNA at [4 μM] ± SD [2]: 80.07 ± 0.48% | % Inhibition of mRNA [2]: 80.414% and 79.735% | IC50 [3, 7]: 0.001 µM | IC50 [3, 8]: 0.00242 µM | IC50 ([3]; individual values, read-out: Cellular activity (IC50, mM) TNFa production in THP-1): 0.00132 µM

Cn1cc(-c2cccc(-c3nc(C(=O)NC4C5CC6CC4CC(O)(C6)C5)c(N)nc3N)c2)cn1 (centres unmarked) [compound 4]
inhibition at 1 µM (A3): 3.5% | inhibition at 1 µM (CCK2 (CCKB)): -3.4% | percentage of inhibition of activity (ACE-2): INTER | percentage of inhibition of activity (ATPase (Na+/K+)): 0% | inhibition at 1 µM [4]: 26.7% | inhibition at 1 µM (MCH1): 34.6% | percentage of inhibition of activity (TNF-alpha): -2.1% | cytotoxicity in the 3C system ([5]; 1 μM, 3C (HuVEC)): cytotoxicity | cytotoxicity in BioMAP activated cellular systems ([5]; 3 μM): cytotoxic to B cells, fibroblasts and particularly endothelial cells | IL-8 levels in lung fibroblasts (MyoF) ([5]; 0.111 and 0.333 μM): increased | VCAM-1 expression in endothelial cells (3C) ([5]; 0.111 and 0.333 μM): reduced | anti-proliferative activity in BioMAP systems ([5]; 0.111 and 0.333 μM): anti-proliferative to endothelial cells, T and B cells, smooth muscle cells and fibroblasts | sIL10 levels in the endothelial cell / macrophage system (/Mphg) ([5]; 0.111 and 0.333 μM): decreased | sIL17A, sIL17F and sIL6 levels in the B / PMBC cell system (BT) ([5]; 0.111 and 0.333 μM): decreased | endpoints inhibited out of 32 measured in the NHBE (BE3C) and NHBE / fibroblasts (B4FT) systems ([5]; 0.111–0.333 μM, tPA and Eotaxin 3): 2 | inhibition at 1 µM (V2): 0% | inhibition at 1 µM (neutral endopeptidase): 15.6% | percentage of inhibition of activity (NMDA): -6.8% | inhibition at 1 µM (beta 3): 8.1% | percentage of inhibition of activity [6]: -22.4% | inhibition at 1 µM (M3): -0.3% | % Inhibition of mRNA at [4 μM] ± SD [2]: 90.44 ± 0.24% | % Inhibition of mRNA [2]: 90.608% and 90.263% | percentage of inhibition of activity (HIV-1 protease): -16.1% | inhibition at 1 µM (V1a): -9.3% | inhibition at 1 µM (MT1 (ML1A)): 4.2% | inhibition at 1 µM (ERK2 (P42mapk)): 14.3% | inhibition at 1 µM (CaMK2alpha): -53.9% | inhibition at 1 µM (PDE5; 1 μM, read-out: inhibition of PDE5): 61% | inhibition at 1 µM (PDE5; 1 micromolar, PDE5 (h) (non-selective), read-out: percentage of inhibition of activity): 61.5% | IC50 (PDE5; dose response, duplicate, read-out: Inhibition of indicated activity (IC50, μM): PDE5): 0.92 µM | inhibition at 1 µM (caspase-3): 3.9%

CS(=O)(=O)N1CCN(c2ccc(Nc3ncc(C(N)=O)c(NC4CC4)n3)cc2)CC1 [compound 5]
% Inhibition of mRNA at [4 μM] ± SD [2]: 99.76 ± 0.12% | % Inhibition of mRNA [2]: 99.853% and 99.672%

COc1c(NC(=O)c2ccc(C)c(-c3nnc4c(NCC(C)(C)C)nccn34)c2)cc(C(C)(C)C)cc1NS(C)(=O)=O [compound 7, reference compound]
IC50 [3, 7]: 0.002 µM | IC50 [3, 8]: 0.002 µM
